Experimental findings from US20220324865A1 (Bayer Aktiengesellschaft, priority 2018, published 2022) are described below.

This assay has as its target T1, human EP3 receptor (Homo sapiens, UniProt P43115).
T1 construct: expressed in transfected cells; host or cells: CHO K1 (Chinese Hamster Ovary), stably co-transfected with Galpha16 and mitochondrial clytin
T1 sequence (P43115 1-390): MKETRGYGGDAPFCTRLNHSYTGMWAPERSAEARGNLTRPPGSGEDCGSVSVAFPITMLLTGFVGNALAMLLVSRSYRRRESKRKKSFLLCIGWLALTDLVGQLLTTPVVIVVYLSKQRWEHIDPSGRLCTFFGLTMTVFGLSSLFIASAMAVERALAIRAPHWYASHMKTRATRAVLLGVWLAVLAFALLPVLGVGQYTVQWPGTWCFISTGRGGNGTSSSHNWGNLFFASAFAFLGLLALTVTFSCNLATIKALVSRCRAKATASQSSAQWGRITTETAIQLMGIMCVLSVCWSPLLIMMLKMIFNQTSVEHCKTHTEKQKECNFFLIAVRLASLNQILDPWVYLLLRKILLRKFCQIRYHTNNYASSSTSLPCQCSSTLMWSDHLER
Kind of assay: Cellular in vitro assay for determining EP3 receptor activity (human EP3 cell line, sulprostone-stimulated calcium luminescence). It counts as cell-based. The conditions noted are these: CHO cells expressing human EP3 and mitochondrial Clytin; antagonist mode, sulprostone at EC50; read-out: EP3 CHO mtCLY ANTAG IC50. The method in brief: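 Antagonist activity was measured as inhibition of the luminescent calcium signal elicited by EC50 sulprostone, following 10 min compound pretreatment. The cell line was recombinant CHO K1 co-expressing human EP3, Gα16 and the photoprotein Clytin, reconstituted with coelenterazine.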
Consider `Cc1c(C(=O)NC(CO)c2cc(Cl)cc(Cl)c2)nn2c(C)c(-c3ccc4ccccc4c3)[nH]c(=O)c12` (stereo not shown) [Example 3-40, N-[1-(3,5-Dichlorophenyl)-2-hydroxyethyl]-3,7-dimethyl-6-(2-naphthyl)-4-oxo-5H-pyrazolo[1,5-a]pyrazine-2-carboxamide], for which the IC50 turned out to be 7.6 nM.

Turning to `COc1ccc(C2(NC(=O)c3nn4cc(-c5ccc(C)c(Cl)c5)[nH]c(=O)c4c3C3CC3)CN(C)C2)cc1` [6-257], the IC50 worked out at 3.3 nM.

With `O=C(NCC(O)C(F)(F)F)c1nn2cc(-c3ccc(Cl)c(Cl)c3)[nH]c(=O)c2c1C1CC1` (racemic) [6-415], the IC50 was 1.05 nM.

As for `Cc1ccc(-c2cn3nc(C(=O)NC(c4ccc(C(F)(F)F)cc4)C(C)(C)O)c(C4CC4)c3c(=O)[nH]2)cc1C` (single isomer, unassigned) [6-459], the IC50 turned out to be 5.6 nM.

Turning to `Cc1cccc2ncc(-c3cn4nc(C(=O)NC(C)c5ccc(F)cc5)c(C(C)C)c4c(=O)[nH]3)cc12` (stereo not shown) [Example 4-11, N-[1-(4-Fluorophenyl)ethyl]-3-isopropyl-6-(5-methyl-3-quinolyl)-4-oxo-5H-pyrazolo[1,5-a]pyrazine-2-carboxamide], the IC50 is 0.735 nM.

Consider `Cc1c(C(=O)NC(C)c2ccccc2OC(F)F)nn2c(C)c(-c3ccc4ccccc4c3)[nH]c(=O)c12` (stereo not shown) [Example 3-43, N-[1-[2-(Difluoromethoxy)phenyl]ethyl]-3,7-dimethyl-6-(2-naphthyl)-4-oxo-5H-pyrazolo[1,5-a]pyrazine-2-carboxamide], for which the IC50 turned out to be 3.85 nM.

Consider `Cc1cc(-c2cn3nc(C(=O)N[C@@H](c4ccc(F)cc4)C(C)(C)O)c(C4CCC4)c3c(=O)[nH]2)ccc1Cl` [6-620], for which the IC50 was 1.5 nM.

Regarding `Cc1ccc(-c2cn3nc(C(=O)N[C@@H](C)CO)c(C4CCC4)c3c(=O)[nH]2)cc1C` [6-578], the concentration for half-maximal inhibition (IC50) was found to be 2.3 nM.

`CC[C@@H](COC)NC(=O)c1nn2cc(-c3ccc(Cl)c(C)c3)[nH]c(=O)c2c1C1CC1` [6-327]: the IC50 was 0.48 nM.

For `CCn1ccc(C(C)NC(=O)c2cc3c(=O)[nH]c(-c4ccc5ccccc5c4)cn3n2)n1` (stereo not shown) [Example 2-54, N-[1-(1-Ethyl-1H-pyrazol-3-yl)ethyl]-6-(2-naphthyl)-4-oxo-4,5-dihydropyrazolo[1,5-a]pyrazine-2-carboxamide], the half-inhibitory concentration (IC50) was found to be 7.05 nM.

`Cc1c(C(=O)NCc2cccc(CN3CCCC3)c2)nn2c(C)c(-c3ccc4ccccc4c3)[nH]c(=O)c12` [Example 3-36, 3,7-Dimethyl-6-(naphthalen-2-yl)-4-oxo-N-({3-[(pyrrolidin-1-yl)methyl]phenyl}methyl)-4,5-dihydropyrazolo[1,5-a]pyrazine-2-carboxamide]: the IC50 was found to be 6.55 nM.

Regarding `COC[C@@H](NC(=O)c1nn2cc(-c3ccc4ccccc4c3)[nH]c(=O)c2c1C(F)(F)F)c1ccccc1` [6-495], the IC50 turned out to be 0.61 nM.

With `Cc1ccc(-c2cn3nc(C(=O)N[C@H](C)C(C)(C)C)c(C(F)(F)F)c3c(=O)[nH]2)cc1Cl` [6-192], the IC50 was determined as 3.03 nM.

For the compound `COc1ccc(CCNC(=O)c2cc3c(=O)[nH]c(-c4ccc5c(c4)N(C)CCO5)cn3n2)cc1OC` [6-86], the IC50 was 1.95 nM.

`Cc1cccc2ncc(-c3cn4nc(C(=O)NCc5ccccn5)c(C(C)C)c4c(=O)[nH]3)cc12` [Example 4-26, 6-(5-Methylquinolin-3-yl)-4-oxo-3-(propan-2-yl)-N-[(pyridin-2-yl)methyl]-4,5-dihydropyrazolo[1,5-a]pyrazine-2-carboxamide]: the 50% inhibitory concentration (IC50) was 2.75 nM.

For `Cc1ccc(-c2cn3nc(C(=O)N[C@H](C)c4ccc(F)cc4)c(C(C)C)c3c(=O)[nH]2)cc1C` [Example 1-90, 6-(3,4-Dimethylphenyl)-N-[(1R)-1-(4-fluorophenyl)ethyl]-4-oxo-3-(propan-2-yl)-4,5-dihydropyrazolo[1,5-a]pyrazine-2-carboxamide], the half-maximal inhibitory concentration (IC50) was determined as 0.515 nM.

In the case of `Cc1cc(-c2cn3nc(C(=O)N[C@@H](c4ccc(F)cc4)C(C)(C)O)c(C4CC4)c3c(=O)[nH]2)c(F)cc1Cl` [6-594], the IC50 is 0.46 nM.

Regarding `Cc1cc(-c2cn3nc(C(=O)N[C@@H](C)C(C)C)c(C(F)(F)F)c3c(=O)[nH]2)ccc1Cl` [6-215], the IC50 is 2.7 nM.

With `C[C@@H](NC(=O)c1cc2c(=O)[nH]c(-c3ccc4c(c3)CCC4)cn2n1)c1ccc(F)cc1` [Example 1-98, 6-(2,3-Dihydro-1H-inden-5-yl)-N-[(1R)-1-(4-fluorophenyl)ethyl]-4-oxo-4,5-dihydropyrazolo[1,5-a]-pyrazine-2-carboxamide], the IC50 worked out at 3.45 nM.

For the compound `Cc1ccc(-c2cn3nc(C(=O)NCC(O)C(F)(F)F)c(C)c3c(=O)[nH]2)cc1F` (single isomer, unassigned) [6-410], the IC50 was determined as 5.18 nM.

Regarding `Cc1ccc(-c2cn3nc(C(=O)N[C@@H](c4ccc(F)cc4)C(F)(F)CO)c(C4CC4)c3c(=O)[nH]2)cc1F` [6-375], the IC50 was found to be 1.07 nM.

`O=C(NC(c1ccccc1)C(F)F)c1cc2c(=O)[nH]c(-c3ccc4c(c3F)OCCO4)cn2n1` (stereo not shown) [Example 1-110, N-(2,2-Difluoro-1-phenylethyl)-6-(5-fluoro-2,3-dihydro-1,4-benzodioxin-6-yl)-4-oxo-4,5-dihydro-pyrazolo[1,5-a]pyrazine-2-carboxamide]: the IC50 was 1.01 nM.

On to `Cc1ccc(C(C)NC(=O)c2cc3c(=O)[nH]c(-c4ccc5ccccc5c4)cn3n2)cc1` (stereo not shown) [Example 2-44, N-[1-(4-Methylphenyl)ethyl]-6-(2-naphthyl)-4-oxo-4,5-dihydropyrazolo[1,5-a]pyrazine-2-carboxamide], for which the IC50 was found to be 1.3 nM.

On to `Cc1cccc(C)c1OCC(C)NC(=O)c1cc2c(=O)[nH]c(-c3ccc4ccccc4c3)cn2n1` (stereo not shown) [Example 2-30, N-[1-(2,6-Dimethylphenoxy)propan-2-yl]-6-(2-naphthyl)-4-oxo-4,5-dihydropyrazolo[1,5-a]pyrazine-2-carboxamide], for which the IC50 came out at 5.45 nM.

As to `Cc1c(C(=O)NC2(c3ccccc3)CCOCC2)nn2c(C)c(-c3ccc4ccccc4c3)[nH]c(=O)c12` [Example 3-34, 3,7-Dimethyl-6-(2-naphthyl)-4-oxo-N-(4-phenyltetrahydro-2H-pyran-4-yl)-4,5-dihydropyrazolo[1,5-a]pyrazine-2-carboxamide], the IC50 was determined as 6.05 nM.

Regarding `O=C(NC1CCN(C2CC2)C1)c1nn2cc(-c3ccc4ccccc4c3)[nH]c(=O)c2c1C(F)(F)F` (racemic) [6-499], the IC50 is 13 nM.

For `Cc1ccc(-c2cn3nc(C(=O)NCC(O)C(F)(F)F)c(C)c3c(=O)[nH]2)cc1F` (single isomer, unassigned) [6-411], the IC50 is 32.5 nM.

Regarding `Cc1cc(-c2cn3nc(C(=O)N[C@H](C)C(C)(C)C)c(C4CC4)c3c(=O)[nH]2)ccc1Cl` [6-318], the IC50 was determined as 3.2 nM.

As for `Cc1ccc(-c2cn3nc(C(=O)N[C@@H](c4ccc(F)cc4)C(C)(C)O)c(C(F)(F)C(F)(F)F)c3c(=O)[nH]2)cc1Cl` [6-488], the IC50 is 0.57 nM.

As for `COc1ccc(C2(NC(=O)c3nn4cc(-c5ccc(C)c(F)c5)[nH]c(=O)c4c3C3CC3)CN(C)C2)cc1` [6-365], the concentration for half-maximal inhibition (IC50) amounted to 3.15 nM.

On to `COC[C@H](NC(=O)c1cc2c(=O)[nH]c(-c3ccc4ccccc4c3)cn2n1)c1ccccc1` [Example 1-2, N-[(1R)-2-Methoxy-1-phenylethyl]-6-(naphthalen-2-yl)-4-oxo-4,5-dihydropyrazolo[1,5-a]pyrazine-2-carboxamide], for which the IC50 was 2.5 nM.

Regarding `Cc1ccc(-c2cn3nc(C(=O)NC4CC4C(C)C)c(C(F)(F)F)c3c(=O)[nH]2)cc1F` (single isomer, unassigned) [6-145], the IC50 came to 6.25 nM.

Take `N#Cc1c(C(=O)N[C@H](CCO)c2ccc(F)cc2)nn2cc(-c3ccc4ccccc4c3)[nH]c(=O)c12` [Example 1-71, 3-Cyano-N-[(1R)-1-(4-fluorophenyl)-3-hydroxypropyl]-6-(naphthalen-2-yl)-4-oxo-4,5-dihydropyrazolo[1,5-a]pyrazine-2-carboxamide]: the IC50 worked out at 1.45 nM.

As for `Cc1ccc(-c2cn3nc(C(=O)N[C@@H](C)C4CC4)c(C(F)(F)F)c3c(=O)[nH]2)cc1C` [6-119], the IC50 came out at 1.09 nM.

Take `O=C(NC(c1ccc(F)cc1)C1(O)CC1)c1nn2cc(-c3ccc(Cl)c(F)c3)[nH]c(=O)c2c1C1CC1` (racemic) [6-96]: the IC50 stood at 0.49 nM.

For `C[C@@H](CO)NC(=O)c1nn2cc(-c3ccc4ccccc4c3)[nH]c(=O)c2c1C(F)(F)F` [6-526], the IC50 was 9.43 nM.

Take `O=C(N[C@H]1c2ccccc2C[C@@H]1O)c1nn2cc(-c3ccc4ccccc4c3)[nH]c(=O)c2c1C(F)(F)F` [Example 1-78, N-[(1S,2S)-2-Hydroxy-2,3-dihydro-1H-inden-1-yl]-6-(naphthalen-2-yl)-4-oxo-3-(trifluoromethyl)-4,5-dihydropyrazolo[1,5-a]pyrazine-2-carboxamide]: the IC50 was 1.06 nM.

In the case of `Cc1cccc2ncc(-c3cn4nc(C(=O)N[C@@H](c5ccc(F)cc5)C(C)(C)O)c(C(C)C)c4c(=O)[nH]3)cc12` [Example 1-89, N-[(1S)-1-(4-Fluorophenyl)-2-hydroxy-2-methylpropyl]-6-(5-methylquinolin-3-yl)-4-oxo-3-(propan-2-yl)-4,5-dihydropyrazolo[1,5-a]pyrazine-2-carboxamide], the IC50 turned out to be 1.03 nM.

`Cc1ccc(-c2cn3nc(C(=O)N[C@H](C)C4CC4)c(C4CC4)c3c(=O)[nH]2)cc1C` [6-438]: the IC50 worked out at 0.55 nM.

For the compound `Cc1ccc(-c2cn3nc(C(=O)NCCN(C)C4CC4)c(C4CC4)c3c(=O)[nH]2)cc1F` [6-384], the IC50 worked out at 3.4 nM.

As usually defined, the IC50 is the concentration that gives 50% inhibition.
